Holding throughout (assay): DTP human tumour cell line panel, 48 h
Assay [1] deals with COLO 205 colon.
Assay [2] concerns MCF7 breast.
Assay [3] relates to NCI/ADR-RES ovarian.
Assay [4] deals with LOX IMVI melanoma.
Assay [5] has as its system HT29 colon.
Assay [6] has as its system NCI-H226 lung.
The test system of assay [7] is HOP-62 NSCLC.
Assay [8] has as its system HCT-15 colon.
In assay [9] the test system is UACC-62 melanoma.
The subject of assay [10] is HS 578T breast.

Each structure is given as a SMILES string.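 Following 48 hours of exposure in 96-well plates, responses at five concentrations were used to interpolate endpoints linearly. TGI is the concentration that stops growth completely.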

By TGI is commonly meant the concentration at which net growth stops. A high value points to less potent growth arrest. For the molecule `O/N=c1/ccn(O)c2ccccc12`, the TGI in assay [1] was 4.74 µM; in [2], 7.49 µM; in assay [3], 4.7 µM; in [4], 5.67 µM; in assay [5], 4.24 µM; in [6] it was 7.14 µM. Moreover, the TGI is 9.43 µM in assay [7], 5.21 µM in assay [8], 2.53 µM in [9] and greater than 100 µM in assay [10].

On to `NS(=O)(=O)c1ccc(NC(=O)c2cc([N+](=O)[O-])cc([N+](=O)[O-])c2)cc1`, for which the TGI in [1] was 51.8 µM; in [2] it was 53.9 µM; in assay [3] it was greater than 100 µM; in [4] it was 78.1 µM; in [5], greater than 100 µM; in assay [6] it was greater than 100 µM. Further, the TGI in assay [7] is greater than 100 µM; in assay [8] it was greater than 100 µM; in assay [9], 54.2 µM; in assay [10], greater than 100 µM.

Turning to `Cc1nc2c(o1)C(=O)c1ccccc1C2=NC1CCCCC1N` (stereo not given), the TGI in assay [1] turned out to be 3.08 µM; in [2], 0.9 µM; in assay [3], 1.2 µM; in assay [4], 0.66 µM; in assay [5], 5.33 µM; in assay [6], 3.75 µM. For the same molecule, the TGI came out at 2.3 µM in assay [7], 1.84 µM in assay [8], 0.318 µM in [9] and 2.76 µM in [10].

For `CCOC(=O)c1cccc(NC(=O)CBr)c1`, the concentration for total growth inhibition (TGI) in assay [1] came to 3.29 µM; in assay [2], 3.3 µM; in assay [3], 4.39 µM; in assay [4], 0.407 µM; in assay [5], 3.32 µM; in assay [6] it was 2.8 µM. The TGI in assay [7] came to 3.41 µM; in [8] it was 3.66 µM; in [9], 2.92 µM; in [10], 5.28 µM.

`COc1cc2c(cc1OC)C1Cc3ccccc3CCN1CC2` (stereo not given): the TGI in assay [1], in assay [2], in assay [3], in assay [4], in [5] and in assay [6] was greater than 100 µM each time. Also, the concentration for total growth inhibition (TGI) in assay [7], in assay [8], in assay [9] and in [10] was greater than 100 µM in each case.

Turning to `O=C(O)C(Cc1ccc2c(c1)CCC2)(Cc1ccc2c(c1)CCC2)C(=O)O`, the TGI in assay [1], in [2], in assay [3], in assay [4], in assay [5] and in [6] was greater than 100 µM in each case. Also, the TGI in assay [7], in assay [8], in [9] and in assay [10] was greater than 100 µM each time.

As for `COc1ccccc1/C=C1\Sc2scc(-c3cccc([N+](=O)[O-])c3)[n+]2C1=O`, the total growth inhibition concentration (TGI) was determined as 5.19 µM in assay [1]; 10.3 µM in assay [2]; 34.2 µM in [3]; 4.39 µM in assay [4]; 9.97 µM in [5]; 33.5 µM in [6]. The concentration for total growth inhibition (TGI) was 27.6 µM in assay [7], 5.92 µM in assay [8], 22.6 µM in [9] and greater than 62.6 µM in assay [10].

As to `COC(=O)c1ccc2c(c1)CC1(C2)Cc2cc3c(c(C(=O)OC)c2C1)CCCC3` (stereo not given), the TGI in assay [1], in [2], in assay [3], in [4], in [5] and in assay [6] was greater than 100 µM each time. Also, the TGI in assay [7], in [8], in assay [9] and in assay [10] was greater than 100 µM throughout.

With `O=C(c1ccc(Cl)cc1Cl)N(Cc1cccnc1)C(=S)N(Cc1cccnc1)C(=O)c1ccc(Cl)cc1Cl`, the TGI in assay [1] was 4.09 µM; in assay [2], 12.3 µM; in assay [3], 76 µM; in assay [4], 16.7 µM; in assay [5], 5.52 µM; in assay [6] it was 38.3 µM. Besides, the TGI was 7.12 µM in [7], 15.4 µM in assay [8], 23.8 µM in [9] and 66.4 µM in [10].

For `Nc1nc(Cl)c(C=O)c(NCC2(CO)CC(CCc3ccccc3)C2)n1` (stereo not given), the total growth inhibition concentration (TGI) in assay [1] amounted to 24.2 µM; in assay [2], 51.8 µM; in [3] it was 47.6 µM; in assay [4] it was 10.8 µM; in [5] it was 27.7 µM; in assay [6], 27.7 µM. The total growth inhibition concentration (TGI) was determined as 28.6 µM in assay [7], 13.8 µM in assay [8], 16.2 µM in [9] and 84.6 µM in assay [10].

`CCCCCCCCCCCCCCCC(=O)ON1C(=S)NC(C)(c2ccccc2)C1=S` (stereo not given): the TGI in [1], in assay [2], in [3], in assay [4], in assay [5] and in [6] was greater than 100 µM each time. Besides, the TGI in assay [7], in assay [8], in assay [9] and in assay [10] was greater than 100 µM each time.

In the case of `COC(=O)C1Cc2c([nH]c3ccccc23)C(c2cccc(O)c2)N1` (stereo not given), the concentration for total growth inhibition (TGI) in assay [1] was 90.3 µM; in assay [2], greater than 100 µM; in assay [3] it was 49.2 µM; in [4], greater than 100 µM; in assay [5], 83.4 µM; in [6], greater than 100 µM. The TGI in assay [7], in assay [8], in assay [9] and in assay [10] was greater than 100 µM each time.

(Values after PubChem BioAssay (NCI).)
